# In paper PMC7216583 (Parasites & Vectors, 2020):
# Where a name gives a salt, the structure may show the parent alone. Read-outs that look alike come from different tables or passages of the source.
# How the values were obtained:
# [1] = test system: Toxoplasma gondii RH-2F tachyzoites; assay: microbe, parasite or virus in culture; conditions: 72 h
# [2] = test system: PDE4; design: method as in vendor brief description; conditions: ref vendor brief description; cited from earlier work
# [3] = test system: TNF-α; design: method as in vendor brief description; conditions: ref vendor brief description; cited from earlier work
# [4] = test system: B-Raf; design: method as in vendor brief description; conditions: ref vendor brief description; cited from earlier work
# [5] = test system: CSF-1R; design: method as in vendor brief description; conditions: ref vendor brief description; cited from earlier work
# [6] = test system: Abl; design: method as in vendor brief description; conditions: ref vendor brief description; read-out: IC50 Abl-1; cited from earlier work
# [7] = test system: c-Raf; design: method as in vendor brief description; conditions: ref vendor brief description; cited from earlier work
# [8] = test system: cytomegalovirus (CMV); design: method as in vendor brief description; conditions: target not stated with the value; ref vendor brief description; cited from earlier work
# [9] = test system: SGLT2; design: method as in vendor brief description; conditions: ref vendor brief description; cited from earlier work
# [10] = test system: B-RafV600E; design: method as in library vendor description; conditions: ref library vendor description; cited from earlier work
# [11] = test system: PPARδ; design: method as in vendor brief description; conditions: ref vendor brief description; cited from earlier work
# [12] = test system: IGF-1R; design: method as in library vendor description; conditions: ref library vendor description; cited from earlier work
# [13] = in vitro; conditions: human, Host viability (%) mean
# [14] = test system: IR; design: method as in library vendor description; conditions: ref library vendor description; cited from earlier work
# [15] = test system: HDAC10; design: method as in library vendor description; conditions: ref library vendor description; cited from earlier work
# [16] = test system: c-Met; design: method as in library vendor description; conditions: ref library vendor description; cited from earlier work
# [17] = test system: HDAC; design: method as in library vendor description; conditions: ref library vendor description; cited from earlier work
# [18] = test system: ET-B; design: method as in vendor brief description; conditions: ref vendor brief description; read-out: IC50 endothelin (ET) B receptor; cited from earlier work
# [19] = target: endothelin receptor-A; design: method as in vendor brief description; conditions: ref vendor brief description; cited from earlier work
# [20] = test system: human cathepsin K; design: method as in library vendor description; conditions: ref library vendor description; cited from earlier work
# [21] = test system: rabbit cathepsin K; design: method as in library vendor description; conditions: ref library vendor description; cited from earlier work
# [22] = target: cannabinoid type 1 receptor; design: method as in vendor brief description; conditions: ref vendor brief description; cited from earlier work
# [23] = test system: CDK4/cyclin D1; design: method as in library vendor description; conditions: ref library vendor description; cited from earlier work
# [24] = test system: CDK6/cyclin D2; design: method as in library vendor description; conditions: ref library vendor description; cited from earlier work
# [25] = test system: 5-HT2B; design: method as in vendor brief description; conditions: ref vendor brief description; cited from earlier work
# [26] = target: influenza viral neuraminidase; design: method as in vendor catalog number S2716; conditions: median; compound library brief description; ref vendor catalog number S2716; read-out: IC50 of median (influenza viral neuraminidase inhibitor); cited from earlier work
# [27] = test system: CXCL12-mediated chemotaxis; conditions: read-out: IC50 CXCL12-mediated chemotaxis; ref vendor brief description; cited from earlier work
# [28] = test system: CXCR4; design: method as in vendor brief description; conditions: ref vendor brief description; cited from earlier work
# [29] = target: S. aureus ribosomes; design: method as in vendor catalog number S4056; conditions: similar potencies on both ribosomes; compound library brief description; ref vendor catalog number S4056; read-out: Kd (binds to S. aureus ribosomes); cited from earlier work
# [30] = test system: Pim1; conditions: read-out: IC50 Pim1; ref vendor brief description; cited from earlier work
# [31] = test system: ALK; design: method as in library vendor description; conditions: ref library vendor description; cited from earlier work
# [32] = target: gastric H+, K+-ATPase; design: method as in vendor brief description; conditions: at pH 6.5; ref vendor brief description; cited from earlier work
# [33] = target: P-glycoprotein; design: method as in vendor brief description; conditions: ref vendor brief description; cited from earlier work
# [34] = target: secretory phospholipase A2 (sPLA); design: method as in library vendor description; conditions: ref library vendor description; cited from earlier work
# [35] = test system: P-gp; design: method as in library vendor description; conditions: ref library vendor description; cited from earlier work
# [36] = test system: hedgehog; design: method as in library vendor description; conditions: ref library vendor description; cited from earlier work
# [37] = target: 5-HT7 receptor; design: method as in vendor brief description; conditions: ref vendor brief description; cited from earlier work
# [38] = test system: SERT; design: method as in vendor brief description; conditions: ref vendor brief description; cited from earlier work
# [39] = test system: 5-HT(1B); design: method as in vendor brief description; conditions: ref vendor brief description; cited from earlier work
# [40] = test system: 5-HT1A; design: method as in vendor brief description; conditions: ref vendor brief description; cited from earlier work
# [41] = test system: 5-HT3A; design: method as in vendor brief description; conditions: ref vendor brief description; read-out: IC50 5-HT(3A); cited from earlier work
# [42] = target: epidermal growth factor receptor (EGFR); design: method as in vendor brief description; conditions: ref vendor brief description; read-out: IC50 EFGR; cited from earlier work
# [43] = test system: JAK3; design: method as in vendor brief description; conditions: ref vendor brief description; cited from earlier work
# [44] = test system: TGM2; design: method as in vendor brief description; conditions: ref vendor brief description; cited from earlier work
# [45] = test system: JAK1; design: method as in vendor brief description; conditions: ref vendor brief description; cited from earlier work
# [46] = test system: Toxoplasma gondii RH-2F tachyzoites; conditions: preliminary screen, mean
# [47] = test system: wild type p110α; design: method as in library vendor description; conditions: ref library vendor description; cited from earlier work
# [48] = read-out: Parasite inhibition (%) mean, preliminary screen of compound library, mean
# [49] = read-out: Parasite inhibition (%) mean, preliminary screen, mean
compound,measurement,setting,value
CCOc1cc([C@@H](CS(C)(=O)=O)N2C(=O)c3cccc(NC(C)=O)c3C2=O)ccc1OC [Apremilast (CC-10004)],inhibition of growth at 5 µM,[1]; [48],-1.4%
same,IC50,[2],74 nM
same,IC50,[3],77 nM
COc1cc2ncnc(Oc3cccc(NC(=O)Nc4cc(C(C)(C)C(F)(F)F)on4)c3)c2cc1OC [CEP-32496],inhibition of growth at 5 µM,[1]; [48],0%
same,IC50,[4],36 nM
same,IC50,[5],9 nM
same,IC50,[6],3 nM
same,IC50,[7],39 nM
Nc1ccn(C[C@@H](CO)OCP(=O)(O)O)c(=O)n1 [Cidofovir (Vistide)],inhibition of growth at 5 µM,[1]; [48],0.8%
same,IC50,[8],940 nM
OC[C@H]1O[C@@H](c2ccc(Cl)c(Cc3ccc(O[C@H]4CCOC4)cc3)c2)[C@H](O)[C@@H](O)[C@@H]1O [Empagliflozin (BI10773)],inhibition of growth at 5 µM,[1]; [48],3.8%
same,IC50,[9],3.1 nM
OCCn1cc(-c2ccc3c(c2)CC/C3=N\O)c(-c2ccncc2)n1 [GDC-0879],inhibition of growth at 5 µM,[1]; [49],7.9%
same,IC50,[10],0.13 nM
O=C(NCCS(=O)(=O)c1ccc(C(F)(F)F)cn1)c1ccc(Cl)cc1 [GSK3787],inhibition of growth at 5 µM,[1]; [48],9%
same,pIC50 PPARδ,[11],GSK3787 is as a potent and selective antagonist of PPARδ with pIC50 of 6.6.
CCc1cc(Nc2nccc(-c3c(-c4ccc(OC)c(C(=O)Nc5c(F)cccc5F)c4)nc4ccccn34)n2)c(OC)cc1N1CCC(N2CCN(S(C)(=O)=O)CC2)CC1 [GSK1904529A],IC50,[12],27 nM
same,inhibition of growth at 5 µM,[1]; [49],70.6%
same,viability at 72 h,[13],76.8%
same,IC50,[14],25 nM
Cn1cc(CNCC2CCN(c3ncc(C(=O)NO)cn3)CC2)c2ccccc21 [JNJ-26481585],inhibition of growth at 5 µM,[1]; [49],79.4%
same,IC50,[15],0.46 nM
same,viability at 72 h,[13],70.5%
Cn1cc(-c2ccc3nnc(C(F)(F)c4ccc5ncccc5c4)n3n2)cn1 [JNJ-38877605],inhibition of growth at 5 µM,[1]; [49],84.3%
same,viability at 72 h,[13],77.5%
same,IC50,[16],4 nM
"O=C(/C=C/c1ccc(CN(CCO)CCc2c[nH]c3ccccc23)cc1)NO [LAQ824 (NVP-LAQ824, Dacinostat)]",inhibition of growth at 5 µM,[1]; [49],60.4%
same,IC50,[17],32 nM
CCCNS(=O)(=O)Nc1ncnc(OCCOc2ncc(Br)cn2)c1-c1ccc(Br)cc1 [Macitentan],inhibition of growth at 5 µM,[1]; [48],12.3%
same,IC50,[18],391 nM
same,IC50,[19],0.5 nM
CC(C)(F)C[C@H](N[C@@H](c1ccc(-c2ccc(S(C)(=O)=O)cc2)cc1)C(F)(F)F)C(=O)NC1(C#N)CC1 [Odanacatib (MK 0822)],inhibition of growth at 5 µM,[1]; [49],-9.7%
same,IC50,[20],0.2 nM
same,IC50,[21],1 nM
CCNC1(C(N)=O)CCN(c2ncnc3c2nc(-c2ccccc2Cl)n3-c2ccc(Cl)cc2)CC1 [Otenabant (CP-945598) HCl],inhibition of growth at 5 µM,[1]; [48],0.3%
same,Ki,[22],0.7 nM
CC(=O)c1c(C)c2cnc(Nc3ccc(N4CCNCC4)cn3)nc2n(C2CCCC2)c1=O [PD 0332991 (Palbociclib) HCl],IC50,[23],[…]
same,inhibition of growth at 5 µM,[1]; [49],0.1%
same,IC50,[24],16 nM
N#Cc1cc(CN2CCC(Nc3ncnc4sc(Cl)cc34)CC2)ccc1F [PRX-08066],inhibition of growth at 5 µM,[1]; [48],40.5%
same,IC50,[25],3.4 nM
CCC(CC)[C@H](NC(C)=O)[C@@H]1[C@H](O)[C@@H](C(=O)O)C[C@H]1NC(=N)N [Peramivir Trihydrate],inhibition of growth at 5 µM,[1]; [48],-0.4%
same,IC50,[26],0.09 nM
c1cc(CN2CCCNCCNCCCNCC2)ccc1CN1CCCNCCNCCCNCC1 [Plerixafor (AMD3100)],IC50,[27],5.7 nM
same,inhibition of growth at 5 µM,[1]; read-out: Parasite inhibition (%) mean,12.9%
same,IC50,[28],44 nM
C=C[C@]1(C)C[C@@H](OC(=O)CS[C@@H]2C[C@H]3CC[C@@H](C2)N3C)[C@]2(C)[C@H](C)CC[C@]3(CCC(=O)[C@H]32)[C@@H](C)[C@@H]1O [Retapamulin],Kd,[29],3 nM
O=C1NC(=O)/C(=C\c2cccc(C(F)(F)F)c2)S1 [SMI-4a],IC50,[30],17 nM
same,inhibition of growth at 5 µM,[1]; [48],8.9%
COc1cc(N2CCC(N3CCN(C)CC3)CC2)ccc1Nc1ncc(Cl)c(Nc2ccccc2S(=O)(=O)C(C)C)n1 [TAE684 (NVP-TAE684)],IC50,[31],[…]
same,inhibition of growth at 5 µM,[1]; [49],6.8%
CNCc1cc(-c2ccccc2F)n(S(=O)(=O)c2cccnc2)c1 [TAK-438],IC50,[32],19 nM
same,inhibition of growth at 5 µM,[1]; [48],-9.6%
COc1cc2c(cc1OC)CN(CCc1ccc(NC(=O)c3cc(OC)c(OC)cc3NC(=O)c3cnc4ccccc4c3)cc1)CC2 [Tariquidar],inhibition of growth at 5 µM,[1]; [48],0.4%
same,Kd,[33],5.1 nM
CCc1c(C(=O)C(N)=O)c2c(OCC(=O)O)cccc2n1Cc1ccccc1 [Varespladib (LY315920)],inhibition of growth at 5 µM,[1]; [49],36.6%
same,IC50,[34],7 nM
CS(=O)(=O)c1ccc(C(=O)Nc2ccc(Cl)c(-c3ccccn3)c2)c(Cl)c1 [Vismodegib (GDC-0449)],inhibition of growth at 5 µM,[1]; [49],25.5%
same,IC50,[36],3 nM
Cc1ccc(Sc2ccccc2N2CCNCC2)c(C)c1 [Vortioxetine (Lu AA21004) hydrobromide],inhibition of growth at 5 µM,[1]; [48],66.8%
same,IC50,[37],19 nM
same,IC50,[38],1.6 nM
same,IC50,[39],33 nM
same,IC50,[40],15 nM
same,IC50,[41],3.7 nM
CC(C)N(CCC(=O)c1ccc2ccccc2c1)Cc1ccccc1 [ZM 39923 HCl],IC50,[42],5600 nM
same,inhibition of growth at 5 µM,[1]; [48],13.9%
same,IC50,[43],7100 nM
same,IC50,[44],10 nM
same,IC50,[45],4400 nM
XL147,Parasite inhibition (%) mean,[46],44.4%
same,IC50,[47],40 nM
